Source: patent US11802111B2, “Cyclobutyl amide monoacylglycerol lipase modulators” (Janssen Pharmaceutica NV, priority 2020, dated 2023)

target: human MGL from HeLa cells (Homo sapiens (Human), UniProt Q99685); assay: MGL in vitro activity assay ([glycerol-1,3-3H]-oleoyl glycerol hydrolysis, activated carbon filtration); assay type: biochemical; conditions: 300 nM [Glycerol-1,3-3H]-oleoyl glycerol, one hour
Procedure: The assay used to measure the in vitro activity of MGL is adapted from the assay used for another serine hydrolase (FAAH) described in Wilson et al., 2003 (A high-throughput-compatible assay for determining the activity of fatty acid amide hydrolase. Wilson S J, Lovenberg T W, Barbier A J. Anal Biochem. 2003 Jul. 15; 318(2):270-5). The assay consists of combining endogenously expressed MGL from HeLa cells with test compounds, adding [glycerol-1,3-^3H]-oleyl glycerol, incubating for one hour, and then measuring the amount of cleaved [1,3-^3H]-glycerol that passes through an activated carbon filter. The amount of cleaved, tritiated glycerol passing through the carbon filter is proportional to the activity of the MGL enzyme in a particular well/test condition.
Standard conditions for this assay combine 300 nM [Glycerol-1,3-^3H]-oleoyl glycerol with human MGL from HeLa cells and test compounds for one hour, after which the reaction is filtered through activated carbon and tritium is measured in the flow through. The test compound concentration in screening mode is 10 μM, while the highest compound concentration in IC50 assays is determined empirically. MGL is the predominant hydrolase in HeLa cells/cell homogenates.

human MGL from HeLa cells, sequence (Q99685 whole entry): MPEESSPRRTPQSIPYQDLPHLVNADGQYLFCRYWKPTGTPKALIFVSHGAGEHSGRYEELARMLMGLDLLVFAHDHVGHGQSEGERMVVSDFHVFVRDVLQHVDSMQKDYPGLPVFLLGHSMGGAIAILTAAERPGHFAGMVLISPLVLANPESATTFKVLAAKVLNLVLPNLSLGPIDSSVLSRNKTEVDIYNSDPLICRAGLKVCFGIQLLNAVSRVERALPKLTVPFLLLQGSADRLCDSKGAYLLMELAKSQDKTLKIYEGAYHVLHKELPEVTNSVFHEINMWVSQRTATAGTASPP

SMILES | IC50 [nM]
C[C@]1(O)C[C@@H](C(=O)N2CC3(CC(c4ccc5cnccc5c4)C3)C2)C1 [Example 31, ((1s,3s)-3-Hydroxy-3-methylcyclobutyl)(6-(isoquinolin-6-yl)-2-azaspiro[3.3]heptan-2-yl)methanone] | 1600
COc1ccccc1CC1CC2(C1)CN(C(=O)[C@H]1C[C@@](C)(O)C1)C2 [Example 216, ((1s,3s)-3-Hydroxy-3-methylcyclobutyl)(6-(2-methoxybenzyl)-2-azaspiro[3.3]heptan-2-yl)methanone] | 12
C[C@]1(O)C[C@@H](C(=O)N2CC3(CCC(c4cccc5ccnn45)CC3)C2)C1 [Example 389, ((1s,3s)-3-Hydroxy-3-methylcyclobutyl)(7-(pyrazolo[1,5-a]pyridin-7-yl)-2-azaspiro[3.5]nonan-2-yl)methanone] | 101
Cc1ccc(OC2CCC3(CC2)CN(C(=O)[C@H]2C[C@@](C)(O)C2)C3)cc1C(F)(F)F [Example 259, ((1s,3s)-3-Hydroxy-3-methylcyclobutyl)(7-(4-methyl-3-(trifluoromethyl)phenoxy)-2-azaspiro[3.5]nonan-2-yl)methanone] | 3
CC(C)(C)c1cccc([C@H]2CCC3(C2)CN(C(=O)[C@H]2C[C@@](C)(O)C2)C3)c1 (stereo in doubt) [Example 45, ((*S)-6-(3-(tert-Butyl)phenyl)-2-azaspiro[3.4]octan-2-yl)((1s,3*R)-3-hydroxy-3-methylcyclobutyl)methanone] | 11
Cn1ncc2ccc(CC3CCC4(CC3)CN(C(=O)[C@H]3C[C@@](C)(O)C3)C4)nc21 [Example 403, ((1s,3s)-3-Hydroxy-3-methylcyclobutyl)(7-((1-methyl-1H-pyrazolo[3,4-b]pyridin-6-yl)methyl)-2-azaspiro[3.5]nonan-2-yl)methanone] | 449
C[C@]1(O)C[C@@H](C(=O)N2CC3(CCC(c4ccc(-n5cccn5)cc4)CC3)C2)C1 [Example 346, (7-(4-(1H-Pyrazol-1-yl)phenyl)-2-azaspiro[3.5]nonan-2-yl)((1s,3s)-3-hydroxy-3-methylcyclobutyl)methanone] | 295
CCc1cc(C)cc(C2CCC3(CC2)CN(C(=O)[C@H]2C[C@@](C)(O)C2)C3)c1 [Example 121, (7-(3-Ethyl-5-methylphenyl)-2-azaspiro[3.5]nonan-2-yl)((1s,3s)-3-hydroxy-3-methylcyclobutyl)methanone] | 7.4
C[C@]1(O)C[C@@H](C(=O)N2CC3(CCC(c4ccc(OC(F)(F)F)cc4)C3)C2)C1 (mixture of isomers) [Example 52, (rac)-((1s,3s)-3-Hydroxy-3-methylcyclobutyl)(6-(4-(trifluoromethoxy)phenyl)-2-azaspiro[3.4]octan-2-yl)methanone] | 16
C[C@]1(O)C[C@@H](C(=O)N2CC3(CCC(c4cccc(C5CC5)c4F)C3)C2)C1 (mixture of isomers) [Example 24, (rac)-(6-(3-Cyclopropyl-2-fluorophenyl)-2-azaspiro[3.4]octan-2-yl)((1s,3s)-3-hydroxy-3-methylcyclobutyl)methanone] | 11
C[C@H](c1ccc2cnn(C)c2c1)C1CC2(C1)CN(C(=O)[C@H]1C[C@@](C)(O)C1)C2 (stereo in doubt) [Example 315, ((1s,3*R)-3-Hydroxy-3-methylcyclobutyl)(6-((*S)-1-(1-methyl-1H-indazol-6-yl)ethyl)-2-azaspiro[3.3]heptan-2-yl)methanone] | 45
COc1cccc(C2CCC3(CC2)CN(C(=O)[C@H]2C[C@@](C)(O)C2)C3)c1C [Example 106, ((1s,3s)-3-Hydroxy-3-methylcyclobutyl)(7-(3-methoxy-2-methylphenyl)-2-azaspiro[3.5]nonan-2-yl)methanone] | 30
Cn1cc(C2CCC3(C2)CN(C(=O)[C@H]2C[C@@](C)(O)C2)C3)cn1 (mixture of isomers) [Example 99, (rac)-((1s,3s)-3-Hydroxy-3-methylcyclobutyl)(6-(1-methyl-1H-pyrazol-4-yl)-2-azaspiro[3.4]octan-2-yl)methanone] | 5930
COC1(c2ccccc2)CCC2(CC1)CN(C(=O)[C@H]1C[C@@](C)(O)C1)C2 [Example 342, ((1s,3s)-3-Hydroxy-3-methylcyclobutyl)(7-methoxy-7-phenyl-2-azaspiro[3.5]nonan-2-yl)methanone] | 40
Cn1ncc(C2CCC3(C2)CN(C(=O)[C@H]2C[C@@](C)(O)C2)C3)c1C(F)(F)F (mixture of isomers) [Example 109, (rac)-((1s,3s)-3-Hydroxy-3-methylcyclobutyl)(6-(1-methyl-5-(trifluoromethyl)-1H-pyrazol-4-yl)-2-azaspiro[3.4]octan-2-yl)methanone] | 899
CCn1cc(F)c2ccc(OC3CCC4(CC3)CN(C(=O)[C@H]3C[C@@](C)(O)C3)C4)nc21 [Example 475, (7-((1-Ethyl-3-fluoro-1H-pyrrolo[2,3-b]pyridin-6-yl)oxy)-2-azaspiro[3.5]nonan-2-yl)((1s,3s)-3-hydroxy-3-methylcyclobutyl)methanone] | 4.6
Cc1cc2ccc(CC3CC4(C3)CN(C(=O)[C@H]3C[C@@](C)(O)C3)C4)nc2n1C [Example 292, (6-((1,2-Dimethyl-1H-pyrrolo[2,3-b]pyridin-6-yl)methyl)-2-azaspiro[3.3]heptan-2-yl)((1s,3s)-3-hydroxy-3-methylcyclobutyl)methanone] | 19
COc1nc(OC2CCC3(CC2)CN(C(=O)[C@H]2C[C@@](C)(O)C2)C3)ccc1C [Example 456, ((1s,3s)-3-Hydroxy-3-methylcyclobutyl)(7-((6-methoxy-5-methylpyridin-2-yl)oxy)-2-azaspiro[3.5]nonan-2-yl)methanone] | 19
CCc1cccc(CC2CC3(C2)CN(C(=O)[C@H]2C[C@@](C)(O)C2)C3)c1 [Example 222, (6-(3-Ethylbenzyl)-2-azaspiro[3.3]heptan-2-yl)((1s,3s)-3-hydroxy-3-methylcyclobutyl)methanone] | 5.1
Cc1cccc(OC2CC3(C2)CN(C(=O)[C@H]2C[C@@](C)(O)C2)C3)c1C(F)(F)F [Example 250, ((1s,3s)-3-Hydroxy-3-methylcyclobutyl)(6-(3-methyl-2-(trifluoromethyl)phenoxy)-2-azaspiro[3.3]heptan-2-yl)methanone] | 35

More lines, in order of falling IC50, values ahead:

IC50 [nM] | SMILES
1140 | C[C@]1(O)C[C@@H](C(=O)N2CC3(CC(Cc4ccncc4)C3)C2)C1 [Example 206, ((1s,3s)-3-Hydroxy-3-methylcyclobutyl)(6-(pyridin-4-ylmethyl)-2-azaspiro[3.3]heptan-2-yl)methanone]
64 | COc1cc([C@@H]2CCC3(C2)CN(C(=O)[C@H]2C[C@@](C)(O)C2)C3)ccc1C (stereo in doubt) [Example 18, ((1s,3*S)-3-Hydroxy-3-methylcyclobutyl)((*R)-6-(3-methoxy-4-methylphenyl)-2-azaspiro[3.4]octan-2-yl)methanone]
52 | C[C@]1(O)C[C@@H](C(=O)N2CC3(CC(Cc4ccccc4)C3)C2)C1 [Example 164, (6-Benzyl-2-azaspiro[3.3]heptan-2-yl)((1s,3s)-3-hydroxy-3-methylcyclobutyl)methanone]
34 | C[C@]1(O)C[C@@H](C(=O)N2CC3(CCC(Cc4ccc(C(F)F)cc4)C3)C2)C1 (mixture of isomers) [Example 182, (rac)-(6-(4-(Difluoromethyl)benzyl)-2-azaspiro[3.4]octan-2-yl)((1s,3s)-3-hydroxy-3-methylcyclobutyl)methanone]
22 | C[C@]1(O)C[C@@H](C(=O)N2CC3(CC[C@H](c4cccc(OC(F)(F)F)c4)C3)C2)C1 (stereo in doubt) [Example 42, ((1s,3*R)-3-Hydroxy-3-methylcyclobutyl)((*S)-6-(3-(trifluoromethoxy)phenyl)-2-azaspiro[3.4]octan-2-yl)methanone]
18 | CCc1ccc(C2CCC3(C2)CN(C(=O)[C@H]2C[C@@](C)(O)C2)C3)cc1 (mixture of isomers) [Example 96, (rac)-(6-(4-Ethylphenyl)-2-azaspiro[3.4]octan-2-yl)((1s,3s)-3-hydroxy-3-methylcyclobutyl)methanone]
18 | Cc1cccc(CC2CCC3(CC2)CN(C(=O)[C@H]2C[C@@](C)(O)C2)C3)c1F [Example 398, (7-(2-Fluoro-3-methylbenzyl)-2-azaspiro[3.5]nonan-2-yl)((1s,3s)-3-hydroxy-3-methylcyclobutyl)methanone]
13 | Cc1cnc(OC2CCC3(CC2)CN(C(=O)[C@H]2C[C@@](C)(O)C2)C3)c(Cl)c1 [Example 436, (7-((3-Chloro-5-methylpyridin-2-yl)oxy)-2-azaspiro[3.5]nonan-2-yl)((1s,3s)-3-hydroxy-3-methylcyclobutyl)methanone]
10 | Cn1cc(F)c2ccc(CC3CC4(C3)CN(C(=O)[C@H]3C[C@@](C)(O)C3)C4)nc21 [Example 293, (6-((3-Fluoro-1-methyl-1H-pyrrolo[2,3-b]pyridin-6-yl)methyl)-2-azaspiro[3.3]heptan-2-yl)((1s,3s)-3-hydroxy-3-methylcyclobutyl)methanone]
5.8 | Cc1cc(OC2CC3(CCN(C(=O)[C@H]4C[C@@](C)(O)C4)CC3)C2)ccc1C(F)(F)F [Example 480, ((1s,3s)-3-Hydroxy-3-methylcyclobutyl)(2-(3-methyl-4-(trifluoromethyl)phenoxy)-7-azaspiro[3.5]nonan-7-yl)methanone]
3.4 | Cc1cc(OC(F)(F)F)ccc1C1CCC2(C1)CN(C(=O)[C@H]1C[C@@](C)(O)C1)C2 (mixture of isomers) [Example 9, (rac)-((1s,3s)-3-Hydroxy-3-methylcyclobutyl)(6-(2-methyl-4-(trifluoromethoxy)phenyl)-2-azaspiro[3.4]octan-2-yl)methanonemethanone]
